Reference: the CheMixHub ionic liquid set
Several values for one entry are separate records, joined by “and”; a condition that tells them apart may be missing. Equal entries are not always repeated.

Assay: xn = mol fraction of the nth substance listed

CCCCCCCCCCCC[P+](CC)(CC)CC.N#Cc1ccc[n-]1 + OCCN(CCO)CCO
100 kPa
Conditions | electrical conductivity [S/m] | viscosity [mPa·s]
293.15 K, x1 = 0.01 | 0.0023 | –
293.15 K, x1 = 0.035 | 0.0045 | 990
293.15 K, x1 = 0.207 | – | 880
293.15 K, x1 = 0.473 | – | 850
293.15 K, x1 = 0.583 | 0.0111 | –
298.15 K, x1 = 0.051 | – | 652
298.15 K, x1 = 0.207 | – | 585
298.15 K, x1 = 0.809 | – | 506
313.15 K, x1 = 0.051 | – | 189
313.15 K, x1 = 0.207 | – | 186

C[n+]1ccn(CCCCCn2cc[n+](C)c2)c1.O=S(=O)([N-]S(=O)(=O)C(F)(F)F)C(F)(F)F.O=S(=O)([N-]S(=O)(=O)C(F)(F)F)C(F)(F)F + OCCOCCOCCOCCO
viscosity, 101 kPa
Conditions | 293.15 K | 303.15 K | 313.15 K | 323.15 K | 333.15 K
x1 = 0.3283 | 178.4 mPa·s | 93.1 mPa·s | 56.5 mPa·s | 36.2 mPa·s | 22.4 mPa·s
x1 = 0.55 | 448 mPa·s | 233 mPa·s | 128 mPa·s | 81.7 mPa·s | 54.9 mPa·s
x1 = 0.7097 | 627 mPa·s | 316 mPa·s and 318 mPa·s | 177.9 mPa·s and 180.1 mPa·s | 107.7 mPa·s | 67.9 mPa·s
x1 = 1 | 1125 mPa·s | 555 mPa·s | 313 mPa·s | 192.3 mPa·s | 123.2 mPa·s

CC(=O)[O-].CC[n+]1ccn(C)c1 + OC[C@@H](O)[C@@H](O)[C@H](O)[C@@H](O)CO
Conditions | viscosity [mPa·s]
313.15 K, 100 kPa, x2 = 0 | 53.4

CCCC[N+](C)(CCCC)CCCC.[Cl-] + OC[C@H]1O[C@@H](O[C@H]2[C@H](O)[C@@H](O)[C@@H](O)O[C@@H]2CO)[C@H](O)[C@@H](O)[C@H]1O + O
viscosity [mPa·s], 100 kPa
Conditions | 293.15 K | 298.15 K | 303.15 K | 308.15 K | 313.15 K
x2 = 0, x1 = 0.0003603 | 1.01 | 0.904 | 0.809 | 0.726 | 0.661
x2 = 0, x1 = 0.0007023 | 1.024 | 0.914 | 0.815 | 0.735 | 0.671
x2 = 0, x1 = 0.001062 | 1.035 | 0.93 | 0.829 | 0.744 | 0.686
x2 = 0, x1 = 0.001422 | 1.045 | 0.941 | 0.839 | 0.756 | 0.694

CCCC[N+](C)(CCCC)CCCC.[Cl-] + OC[C@H]1O[C@@](CO)(O[C@H]2O[C@H](CO)[C@@H](O)[C@H](O)[C@H]2O)[C@@H](O)[C@@H]1O + O
viscosity [mPa·s], 101.3 kPa
Conditions | 293.15 K | 298.15 K | 303.15 K | 308.15 K | 313.15 K
x2 = 0, x1 = 0.0003423 | 1.011 | 0.904 | 0.806 | 0.729 | 0.662
x2 = 0, x1 = 0.0007203 | – | – | – | – | 0.672
x2 = 0, x1 = 0.001062 | 1.036 | 0.931 | 0.826 | 0.747 | 0.686
x2 = 0, x1 = 0.00144 | – | – | – | – | 0.695
x2 = 0.0003599, x1 = 0.0003421 | 1.027 | 0.917 | 0.817 | 0.737 | 0.668
x2 = 0.0003616, x1 = 0.00072 | 1.041 | 0.928 | 0.824 | 0.746 | 0.68
x2 = 0.0003631, x1 = 0.001062 | 1.057 | 0.948 | 0.839 | 0.758 | 0.695
x2 = 0.0003647, x1 = 0.001439 | 1.069 | 0.962 | 0.857 | 0.773 | 0.706
x2 = 0.0007214, x1 = 0.000342 | 1.052 | 0.937 | 0.83 | 0.747 | 0.677
x2 = 0.0007247, x1 = 0.0007198 | 1.069 | 0.948 | 0.839 | 0.759 | 0.692
x2 = 0.0007277, x1 = 0.001061 | 1.084 | 0.968 | 0.855 | 0.773 | 0.709
x2 = 0.000731, x1 = 0.001438 | 1.096 | 0.984 | 0.871 | 0.786 | 0.718
x2 = 0.001083, x1 = 0.0003419 | 1.071 | 0.952 | 0.845 | 0.761 | 0.689
x2 = 0.001088, x1 = 0.0007195 | 1.088 | 0.965 | 0.854 | 0.772 | 0.701
x2 = 0.001092, x1 = 0.001061 | 1.105 | 0.994 | 0.872 | 0.785 | 0.718
x2 = 0.001097, x1 = 0.001438 | 1.118 | 1.007 | 0.89 | 0.8 | 0.729
x2 = 0.001444, x1 = 0.0003418 | 1.093 | 0.971 | 0.86 | 0.774 | 0.701
x2 = 0.00145, x1 = 0.0007192 | 1.11 | 0.984 | 0.87 | 0.786 | 0.712
x2 = 0.001456, x1 = 0.001061 | 1.126 | 1.009 | 0.889 | 0.799 | 0.73
x2 = 0.001463, x1 = 0.001437 | 1.141 | 1.025 | 0.908 | 0.816 | 0.741
x2 = 0.001804, x1 = 0.0003416 | 1.115 | 0.987 | 0.875 | 0.788 | 0.713
x2 = 0.001813, x1 = 0.000719 | 1.134 | 1.001 | 0.885 | 0.798 | 0.726
x2 = 0.00182, x1 = 0.00106 | 1.153 | 1.025 | 0.905 | 0.814 | 0.744
x2 = 0.001828, x1 = 0.001437 | 1.166 | 1.042 | 0.925 | 0.829 | 0.76
x2 = 0.002163, x1 = 0.0003415 | 1.137 | 1.006 | 0.89 | 0.802 | 0.725
x2 = 0.002173, x1 = 0.0007187 | 1.155 | 1.02 | 0.901 | 0.811 | 0.734
x2 = 0.002176, x1 = 0.00106 | 1.171 | 1.044 | 0.922 | 0.828 | 0.754
x2 = 0.002192, x1 = 0.001436 | 1.182 | 1.059 | 0.941 | 0.841 | 0.762
x2 = 0.002532, x1 = 0.0003414 | 1.153 | 1.027 | 0.904 | 0.806 | 0.734
x2 = 0.002546, x1 = 0.0007185 | 1.176 | 1.038 | 0.916 | 0.822 | 0.754
x2 = 0.00256, x1 = 0.001436 | 1.203 | 1.075 | 0.957 | 0.859 | 0.775
x2 = 0.002561, x1 = 0.001059 | 1.187 | 1.058 | 0.934 | 0.842 | 0.766

CC[N+](CC)(CC)CC.[Cl-] + Oc1ccccc1
viscosity [mPa·s], 101 kPa
Conditions | 303.15 K | 323.15 K
x1 = 0.2 | 34.1 | 14.34
x1 = 0.25 | 38.6 | –

CCCC[n+]1ccn(C)c1.N#C[S-] + [Br-].[Li+] + CN1CCCC1=O
298.15 K, 101 kPa
Conditions | viscosity [mPa·s]
x1 = 0.001086, x2 = 0.02623 | 2.384
x1 = 0.001092, x2 = 0.05108 | 3.161
x1 = 0.001138, x2 = 0.07527 | 4.38
x1 = 0.002508, x2 = 0.07516 | 4.412
x1 = 0.002857, x2 = 0.02618 | 2.408
x1 = 0.003083, x2 = 0.05098 | 3.197
x1 = 0.004195, x2 = 0.07504 | 4.452
x1 = 0.004231, x2 = 0.02614 | 2.429
x1 = 0.004315, x2 = 0.05092 | 3.225
x1 = 0.005622, x2 = 0.05085 | 3.261
x1 = 0.005708, x2 = 0.02611 | 2.45
x1 = 0.006129, x2 = 0.07489 | 4.48
x1 = 0.007405, x2 = 0.02606 | 2.464
x1 = 0.007466, x2 = 0.07479 | 4.509
x1 = 0.007731, x2 = 0.05075 | 3.29
x1 = 0.008848, x2 = 0.07469 | 4.531
x1 = 0.008873, x2 = 0.02602 | 2.492
x1 = 0.009097, x2 = 0.05068 | 3.316
x1 = 0.01032, x2 = 0.07458 | 4.563
x1 = 0.01035, x2 = 0.02598 | 2.521
x1 = 0.01065, x2 = 0.0506 | 3.345
x1 = 0.01201, x2 = 0.02594 | 2.555
x1 = 0.01214, x2 = 0.05052 | 3.376
x1 = 0.01216, x2 = 0.07444 | 4.604

CCCC[n+]1ccn(C)c1.N#C[S-] + [Cl-].[Li+] + CN1CCCC1=O
298.15 K, 101 kPa
Conditions | viscosity [mPa·s]
x1 = 0.000959, x2 = 0.03815 | 2.65
x1 = 0.001063, x2 = 0.07221 | 3.61
x1 = 0.001192, x2 = 0.104 | 4.991
x1 = 0.002304, x2 = 0.07212 | 3.657
x1 = 0.002399, x2 = 0.03809 | 2.683
x1 = 0.00252, x2 = 0.1039 | 5.021
x1 = 0.003854, x2 = 0.03804 | 2.715
x1 = 0.003994, x2 = 0.072 | 3.706
x1 = 0.00415, x2 = 0.1037 | 5.048
x1 = 0.005535, x2 = 0.03797 | 2.75
x1 = 0.005737, x2 = 0.1036 | 5.082
x1 = 0.005932, x2 = 0.07186 | 3.734
x1 = 0.006974, x2 = 0.07178 | 3.765
x1 = 0.007127, x2 = 0.1034 | 5.104
x1 = 0.007392, x2 = 0.0379 | 2.777
x1 = 0.008668, x2 = 0.1032 | 5.141
x1 = 0.008714, x2 = 0.07165 | 3.796
x1 = 0.009327, x2 = 0.03783 | 2.805
x1 = 0.009861, x2 = 0.07157 | 3.834
x1 = 0.009986, x2 = 0.1031 | 5.166
x1 = 0.01105, x2 = 0.03776 | 2.846
x1 = 0.01164, x2 = 0.1029 | 5.198
x1 = 0.01191, x2 = 0.07142 | 3.877
x1 = 0.01372, x2 = 0.03766 | 2.869

CC(=O)[O-].CC[n+]1ccn(C)c1 + [Cl-].[NH4+]
101 kPa, x2 = 0
Conditions | electrical conductivity [S/m] | viscosity [mPa·s]
308.15 K | 0.473 | 71.3
318.15 K | 0.76 | 44.2

CCCC[n+]1ccn(C)c1.N#C[N-]C#N + [I-].[Li+]
101 kPa, x1 = 1
Conditions | electrical conductivity [S/m]
288.15 K | 0.611
298.15 K | 0.883
333.15 K | 2.18

CC(=O)[O-].CC[n+]1ccn(C)c1 + [N-]=C=S.[NH4+]
313.15 K, 101 kPa, x2 = 0
Conditions | electrical conductivity [S/m] | viscosity [mPa·s]
– | 0.6 | 56.4

CCCC[P+](CCCC)(CCCC)CCCC.CS(=O)(=O)[O-] + c1c[nH]cn1
101.33 kPa, x1 = 0.5
Conditions | viscosity [mPa·s]
313.05 K | 100
353.05 K | 21.6

CCCC[n+]1ccn(C)c1.N#C[S-] + c1ccccc1
viscosity [mPa·s], 100 kPa
Conditions | x2 = 0 | x2 = 0.2334 | x2 = 0.258 | x2 = 0.3919 | x2 = 0.5094
298.15 K | 62.8 | 33 | 30.7 | 20.1 | 12.51
308.15 K | 40.6 | 22.5 | 21.1 | 14.29 | 9.27
318.15 K | 27.8 | 16.2 | 15.23 | 10.64 | 7.16
328.15 K | 20.1 | 12.19 | 11.52 | 8.25 | 5.65

CCCC[n+]1ccn(C)c1.N#C[S-] + c1ccsc1
viscosity [mPa·s], 100 kPa
Conditions | x2 = 0 | x2 = 0.103 | x2 = 0.143 | x2 = 0.246 | x2 = 0.61 | x2 = 0.701
298.15 K | 57.4 | 47.2 | 42.9 | 32 | 13.36 | 9.93
308.15 K | 37.4 | 31.4 | 28.7 | 22 | 9.94 | 7.57
318.15 K | 25.8 | 22.1 | 20.4 | 15.96 | 7.67 | 5.96
328.15 K | 18.7 | 16.22 | 15.07 | 12.02 | 6.1 | 4.83
